Bridge positions count the residues as written; N and C are the ends. Square brackets hold non-standard residues; d marks the D form. Peptide text beside a SMILES is read from it. * marks the point of attachment. ξ: configuration not given here. Phe(3-CF3) = N[C@@H](Cc1cccc(C(F)(F)F)c1)C(=O)O; Phe(3,4-F2) = N[C@@H](Cc1ccc(F)c(F)c1)C(=O)O; Bip = N[C@@H](Cc1ccc(-c2ccccc2)cc1)C(=O)O; NH(CH2)14COOH = O=C(O)CCCCCCCCCCCCCCN*; Phe(3-Me) = Cc1cccc(C[C@H](N)C(=O)O)c1; ξBip = NC(Cc1ccc(-c2ccccc2)cc1)C(=O)O; NH(CH2)12COOH = O=C(O)CCCCCCCCCCCCN*; Val(3-OH) = CC(C)(O)[C@H](N)C(=O)O; 4Pal = N[C@@H](Cc1ccncc1)C(=O)O; 3Thi = N[C@@H](Cc1ccsc1)C(=O)O; Cha = N[C@@H](CC1CCCCC1)C(=O)O; Cit = NC(=O)NCCC[C@H](N)C(=O)O; Thr(3ξ) = CC(O)[C@H](N)C(=O)O; Dap(Me) = CNC[C@H](N)C(=O)O; Carboxymethyl = O=C(O)C*; Orn = NCCC[C@H](N)C(=O)O; Aun = NCCCCCCCCCCC(=O)O; Dab = NCC[C@H](N)C(=O)O; Dap = NC[C@H](N)C(=O)O; ξD = NC(CC(=O)O)C(=O)O; AEEA = NCCOCCOCC(=O)O; Propargyl = C#CC*
What follows are molecules tested against T1, PD-1/PD-L1 interaction (PE-labeled human PD-L1-Ig binding to Jurkat cell line over-expressing human PD-1) (Homo sapiens, UniProt Q15116) (assay: Jurkat-PD-1 Cell Binding High-Content Screening Assay (CBA)). Settings: Jurkat cell line over-expressing human PD-1; PE-labeled PD-L1-Ig 20 nM final; read-out: Jurkat hPD1-PDL1 IC50.
T1 construct: expressed in transfected cells; host or cells: Jurkat
T1 sequence (Q15116 25-288): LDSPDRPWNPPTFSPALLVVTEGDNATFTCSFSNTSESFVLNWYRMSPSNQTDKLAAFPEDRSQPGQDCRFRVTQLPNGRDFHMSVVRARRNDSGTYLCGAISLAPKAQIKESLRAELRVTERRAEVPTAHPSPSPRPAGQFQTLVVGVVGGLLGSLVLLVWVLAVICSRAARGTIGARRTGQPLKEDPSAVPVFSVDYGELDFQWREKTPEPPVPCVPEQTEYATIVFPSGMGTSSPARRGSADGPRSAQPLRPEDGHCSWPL
Assay type: cell-based
Method in brief: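 Human PD-L1-Ig carrying a covalent PE label on its Ig tag serves as the probe, applied at 20 nM final to compound-treated (2 h, 37° C) Jurkat-hPD-1 cells in medium with 10% fetal calf serum. After one hour, fixation and nuclear staining precede high-content image analysis.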

IC50 [µM]	SMILES
0.0162	CNC[C@@H]1NC(=O)CSC[C@@H](C(=O)N[C@@H](CCN)C(=O)NCCCCCCCCCCC(=O)O)NC(=O)[C@H](C(C)O)NC(=O)[C@H](C(C)C)NC(=O)[C@H](CC2CCCCC2)NC(=O)[C@H](CCN)NC(=O)[C@@H](CC(C)C)NC(=O)[C@H](CCCN)NC(=O)[C@H](CCCCNC(C)=O)NC(=O)[C@H](Cc2ccc(-c3ccccc3)cc2)NC(=O)[C@H](CCCCNC(C)=O)NC(=O)[C@H](Cc2cccc(C)c2)NC(=O)[C@H](CC(=O)O)NC(=O)[C@H](Cc2ccc(OCC(=O)O)cc2)NC1=O (stereo partly drawn) [Compound 3594] ({CH2CO}-[Dap(Me)]Y(Carboxymethyl)D[Phe(3-Me)]K(Ac)[Bip]K(Ac)[Orn][dL][Dab][Cha]V[Thr(3ξ)]C[Dab][Aun]-OH; thioether N-14)
0.147	CC(=O)NCCCC[C@@H]1NC(=O)[C@H](C(C)(C)O)NC(=O)[C@H](CC2CCCCC2)NC(=O)[C@H](CCN)NC(=O)[C@@H](CC(C)C)NC(=O)[C@H](CCCN)NC(=O)[C@H](CCC(N)=O)NC(=O)[C@H](Cc2ccc(-c3ccccc3)cc2)NC(=O)[C@H](Cc2ccc(OCC(=O)O)cc2)NC(=O)[C@H](Cc2cccc(C(F)(F)F)c2)NC(=O)[C@H](CC(=O)O)NC(=O)[C@H](Cc2ccc(OCC(=O)O)cc2)NC(=O)[C@H](Cc2ccc(OCC(=O)O)cc2)NC(=O)CSC[C@@H](C(=O)N[C@@H](CCN)C(=O)NCCCCCCCCCCCCCCC(=O)O)NC1=O [Compound 3875] ({CH2CO}-Y(Carboxymethyl)Y(Carboxymethyl)D[Phe(3-CF3)]Y(Carboxymethyl)[Bip]Q[Orn][dL][Dab][Cha][Val(3-OH)]K(Ac)C[Dab]-{NH(CH2)14COOH}; thioether N-14)
0.259	COc1ccc(C[C@@H]2NC(=O)[C@H](Cc3cccc(C)c3)NC(=O)[C@H](CC(=O)O)NC(=O)[C@H](Cc3ccc(OCC(=O)O)cc3)NC(=O)[C@H](Cc3ccncc3)NC(=O)CSC[C@@H](C(=O)N[C@@H](CCN)C(=O)NCCOCCOCC(=O)NCCOCCOCC(=O)NCCCCCCCCCCCCC(=O)O)NC(=O)[C@H](CO)NC(=O)[C@H](C(C)(C)O)NC(=O)[C@H](CC3CCCCC3)NC(=O)[C@H](CCN)NC(=O)[C@@H](CC(C)C)NC(=O)[C@H](CCCN)NC(=O)[C@H](Cc3ccc(OCC(=O)O)cc3)NC(=O)[C@H](Cc3ccc(-c4ccccc4)cc3)NC2=O)cc1 [Compound 2894] ({CH2CO}-[4Pal]Y(Carboxymethyl)D[Phe(3-Me)]Y(Me)[Bip]Y(Carboxymethyl)[Orn][dL][Dab][Cha][Val(3-OH)]SC[Dab][AEEA][AEEA]-{NH(CH2)12COOH}; thioether N-14)
0.119	CC(C)C[C@H]1NC(=O)[C@H](CCN)NC(=O)[C@H](C(C)C)NC(=O)[C@H](Cc2ccc(-c3ccccc3)cc2)NC(=O)[C@H](C(C)C)NC(=O)[C@H](Cc2c[nH]c3ccccc23)NC(=O)[C@H](CC(=O)O)NC(=O)[C@H](Cc2ccc(OCC(=O)O)cc2)NC(=O)[C@H](Cc2ccsc2)NC(=O)CSC[C@@H](C(=O)N[C@@H](CCN)C(=O)NCCCCCCCCCCC(=O)O)NC(=O)[C@H](C(C)O)NC(=O)[C@H](C(C)C)NC(=O)[C@H](CC2CCCCC2)NC(=O)[C@H](CCN)NC1=O (stereo partly drawn) [Compound 3282] ({CH2CO}-[3Thi]Y(Carboxymethyl)DWV[Bip]V[Dab][dL][Dab][Cha]V[Thr(3ξ)]C[Dab][Aun]-OH; thioether N-14)
0.0125	Cc1cccc(C[C@@H]2NC(=O)[C@H](CC(=O)O)NC(=O)[C@H](Cc3ccc(OCC(=O)O)cc3)NC(=O)[C@H](CN)NC(=O)CSC[C@@H](C(=O)N[C@@H](C)C(=O)N[C@@H](CCC(=O)O)C(=O)NCCCCCCCCCCC(=O)O)NC(=O)[C@H](CN)NC(=O)[C@H](C(C)C)NC(=O)[C@H](CC3CCCCC3)NC(=O)[C@H](CCN)NC(=O)[C@@H](CC(C)C)NC(=O)[C@H](CCCN)NC(=O)[C@H](CCCNC(N)=O)NC(=O)[C@H](Cc3ccc(-c4ccccc4)cc3)NC(=O)[C@H](C(C)C)NC2=O)c1 [Compound 2618] ({CH2CO}-[Dap]Y(Carboxymethyl)D[Phe(3-Me)]V[Bip][Cit][Orn][dL][Dab][Cha]V[Dap]CAE[Aun]-OH; thioether N-14)
0.0117	Cc1cccc(C[C@@H]2NC(=O)C(CC(=O)O)NC(=O)[C@H](Cc3ccc(OCC(=O)O)cc3)NC(=O)[C@H](CN)NC(=O)CSC[C@@H](C(=O)N[C@@H](CN)C(=O)NCCCCCCCCCCC(=O)O)NC(=O)[C@H]([C@@H](C)O)NC(=O)[C@H](C(C)C)NC(=O)[C@H](CC3CCCCC3)NC(=O)[C@H](CCN)NC(=O)[C@@H](CC(C)C)NC(=O)[C@H](CCCN)NC(=O)[C@H](CCCNC(N)=O)NC(=O)C(Cc3ccc(-c4ccccc4)cc3)NC(=O)[C@H](C(C)C)NC2=O)c1 (stereo partly drawn) [Compound 1181] ({CH2CO}-[Dap]Y(Carboxymethyl)[ξD][Phe(3-Me)]V[ξBip][Cit][Orn][dL][Dab][Cha]VTC[Dap][Aun]-OH; thioether N-14)
0.0255	Cc1cccc(C[C@@H]2NC(=O)[C@H](CC(=O)O)NC(=O)[C@H](Cc3ccc(OCC(=O)O)cc3)NC(=O)[C@H](CCCNC(N)=O)NC(=O)CSC[C@@H](C(=O)N[C@@H](CCN)C(=O)NCCCCCCCCCCC(=O)O)NC(=O)[C@H]([C@@H](C)O)NC(=O)[C@H](C(C)C)NC(=O)[C@H](CC3CCCCC3)NC(=O)[C@H](CCN)NC(=O)[C@@H](CC(C)C)NC(=O)[C@H](CCCN)NC(=O)[C@H](CCCNC(N)=O)NC(=O)[C@H](Cc3ccc(-c4ccccc4)cc3)NC(=O)[C@H](C(C)C)NC2=O)c1 [Compound 2824] ({CH2CO}-[Cit]Y(Carboxymethyl)D[Phe(3-Me)]V[Bip][Cit][Orn][dL][Dab][Cha]VTC[Dab][Aun]-OH; thioether N-14)
0.109	CC(C)C[C@H]1NC(=O)[C@H](CCCN)NC(=O)[C@H](Cc2ccc(O)cc2)NC(=O)[C@H](Cc2ccc(-c3ccccc3)cc2)NC(=O)[C@H](Cc2ccc(OCC(=O)O)cc2)NC(=O)[C@H](Cc2ccc(F)c(F)c2)NC(=O)[C@H](CC(=O)O)NC(=O)[C@H](Cc2ccc(OCC(=O)O)cc2)NC(=O)[C@H](CN)NC(=O)CSC[C@@H](C(=O)N[C@@H](CCN)C(=O)NCCOCCOCC(=O)NCCCCCCCCCCC(=O)O)NC(=O)[C@H](CCCN)NC(=O)[C@H](C(C)C)NC(=O)[C@H](CC2CCCCC2)NC(=O)[C@H](CCN)NC1=O [Compound 1313] ({CH2CO}-[Dap]Y(Carboxymethyl)D[Phe(3,4-F2)]Y(Carboxymethyl)[Bip]Y[Orn][dL][Dab][Cha]V[Orn]C[Dab][AEEA][Aun]-OH; thioether N-14)
0.367	C#CCOc1ccc(C[C@@H]2NC(=O)[C@H](C(C)C)NC(=O)[C@H](CC3CCCCC3)NC(=O)[C@H](CCN)NC(=O)[C@@H](CC(C)C)NC(=O)[C@H](CCCN)NC(=O)[C@H](Cc3ccc(OCC(=O)O)cc3)NC(=O)[C@H](Cc3ccc(-c4ccccc4)cc3)NC(=O)[C@H](Cc3ccc(OCC(=O)O)cc3)NC(=O)[C@H](Cc3cccc(C)c3)NC(=O)[C@H](CC(=O)O)NC(=O)[C@H](Cc3ccc(OCC(=O)O)cc3)NC(=O)[C@H](CN)NC(=O)CSC[C@@H](C(=O)N[C@@H](CCN)C(=O)NCCCCCCCCCCC(=O)O)NC2=O)cc1 [Compound 1248] ({CH2CO}-[Dap]Y(Carboxymethyl)D[Phe(3-Me)]Y(Carboxymethyl)[Bip]Y(Carboxymethyl)[Orn][dL][Dab][Cha]VY(Propargyl)C[Dab][Aun]-OH; thioether N-14)

— patent US20260022142A1, “MACROCYCLIC IMMUNOMODULATORS” (Bristol-Myers Squibb Company, priority 2022, published 2026)
